According to PubChem BioAssay (NCI):
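Five compound concentrations were applied to cells in 96-well plates for 48 hours; endpoints were derived by simple linear interpolation of the resulting dose-response curve. GI50 marks 50% less growth. The concentration for full growth arrest is given as TGI.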

Tests used:
Assay in all cases: growth of human tumour cells (NCI), 48 h
[1] = system: NCI-H226 lung
[2] = system: SR leukemia
[3] = system: OVCAR-8 ovarian
[4] = system: NCI-H23 lung
[5] = system: A498 renal
[6] = system: COLO 205 colon
[7] = system: IGROV1 ovarian
[8] = system: CCRF-CEM leukemia
[9] = system: U251 CNS
[10] = system: EKVX NSCLC
[11] = system: HOP-62 NSCLC
[12] = system: MOLT-4 leukemia
[13] = system: UO-31 renal
[14] = system: HCC-2998 colon
[15] = system: M14 melanoma
[16] = system: SF-295 CNS
[17] = system: MCF7 breast
[18] = system: HL-60(TB) leukemia
[19] = system: MDA-MB-435
[20] = system: HCT-15 colon
[21] = system: NCI-H522 lung
[22] = system: TK-10 renal
[23] = system: BT-549 breast
[24] = system: NCI-H460 lung
[25] = system: DU-145 prostate
[26] = system: MDA-MB-231 breast
[27] = system: A549 NSCLC
[28] = system: HCT-116 colon
[29] = system: CAKI-1 renal
[30] = system: PC-3 prostate
[31] = system: UACC-257 melanoma
[32] = system: RPMI-8226 leukemia
[33] = system: SF-539 CNS
[34] = system: OVCAR-4 ovarian
[35] = system: SF-268 CNS
[36] = system: SW-620 colon
[37] = system: HS 578T breast
[38] = system: MALME-3M melanoma
[39] = system: LOX IMVI melanoma
[40] = system: HOP-92 NSCLC
[41] = system: OVCAR-3 ovarian
[42] = system: HT29 colon
[43] = system: UACC-62 melanoma
[44] = system: RXF 393 renal
[45] = system: T-47D breast
[46] = system: SK-MEL-28 melanoma
[47] = system: 786-0 renal
[48] = system: OVCAR-5 ovarian
[49] = system: K-562 leukemia
[50] = system: SNB-75 CNS
[51] = system: SNB-19 CNS
[52] = system: ACHN renal
[53] = system: SK-MEL-5 melanoma
[54] = system: SN12C renal
[55] = system: SK-MEL-2 melanoma
[56] = system: SK-OV-3 ovarian
[57] = system: MDA-MB-468 breast
[58] = system: KM12 colon

`COc1cccc2nc(Nc3ccc(F)c(NC(=O)c4ccc(CN5CCN(C)CC5)c(C(F)(F)F)c4)c3)ccc12` gave a GI50 [1] of 11.1 µM, a TGI [1] of 24.7 µM and a GI50 [2] of 9.84 µM. For the same compound, the TGI [2] was 28 µM, the GI50 [3] was 15.8 µM and the TGI [3] was 29.8 µM. It also gave a GI50 [4] of 15.5 µM, a TGI [4] of 29.6 µM and a GI50 [5] of 17 µM. For the same compound, the TGI [5] was 32.2 µM, the GI50 [6] was 17.2 µM and the TGI [6] was 31.9 µM. The GI50 [7] was 14.5 µM, the TGI [7] was 29 µM and the GI50 [8] was 9.71 µM. The TGI [8] was 25.6 µM, the GI50 [9] was 13.4 µM and the TGI [9] was 26.1 µM. For the same compound, the GI50 [10] was 14.7 µM, the TGI [10] was 29.1 µM and the GI50 [11] was 14.5 µM. For the same compound, the TGI [11] was 28 µM, the GI50 [12] was 4.1 µM and the TGI [12] was 18.4 µM. The GI50 [13] was 12.6 µM, the TGI [13] was 25.5 µM and the GI50 [14] was 18.8 µM. For the same compound, the TGI [14] was 33.2 µM, the GI50 [15] was 13.1 µM and the TGI [15] was 27.5 µM. The GI50 [16] was 17.1 µM, the TGI [16] was 32.2 µM and the GI50 [17] was 12.3 µM. For the same compound, the TGI [17] was 27.5 µM, the GI50 [18] was 6.52 µM and the TGI [18] was 25.4 µM. The GI50 [19] was 15.1 µM, the TGI [19] was 28.3 µM and the GI50 [20] was 13.4 µM. The TGI [20] was 28.4 µM, the GI50 [21] was 16 µM and the TGI [21] was 30.2 µM. The GI50 [22] was 16.4 µM, the TGI [22] was 30.2 µM and the GI50 [23] was 10.5 µM. It also gave a TGI [23] of 22.6 µM, a GI50 [24] of 15.9 µM and a TGI [24] of 33.5 µM. The GI50 [25] was 12.9 µM, the TGI [25] was 25.6 µM and the GI50 [26] was 12.1 µM. It also gave a TGI [26] of 24.9 µM, a GI50 [27] of 12.2 µM and a TGI [27] of 24.6 µM. The GI50 [28] was 8.75 µM, the TGI [28] was 22.6 µM and the GI50 [29] was 11.5 µM. It also gave a TGI [29] of 24.2 µM, a GI50 [30] of 12 µM and a TGI [30] of 28.7 µM. For the same compound, the GI50 [31] was 16.3 µM, the TGI [31] was 30.1 µM and the GI50 [32] was 9.3 µM. For the same compound, the TGI [32] was 27.1 µM, the GI50 [33] was 12.4 µM and the TGI [33] was 25.5 µM. It also gave a GI50 [34] of 13.9 µM, a TGI [34] of 28.9 µM and a GI50 [35] of 11.1 µM. For the same compound, the TGI [35] was 27.1 µM, the GI50 [36] was 16.9 µM and the TGI [36] was 30.9 µM. The GI50 [37] was 14.1 µM, the TGI [37] was 39.9 µM and the GI50 [38] was 11.7 µM. The TGI [38] was 24.1 µM, the GI50 [39] was 13.8 µM and the TGI [39] was 27.3 µM. It also gave a GI50 [40] of 6.64 µM, a TGI [40] of 21.6 µM and a GI50 [41] of 14.4 µM. It also gave a TGI [41] of 28 µM, a GI50 [42] of 3.61 µM and a TGI [42] of 13.9 µM. For the same compound, the GI50 [43] was 16.2 µM, the TGI [43] was 30.9 µM and the GI50 [44] was 3.71 µM. It also gave a TGI [44] of 17.2 µM, a GI50 [45] of 14.8 µM and a TGI [45] of 31.4 µM. For the same compound, the GI50 [46] was 15.3 µM, the TGI [46] was 30.3 µM and the GI50 [47] was 12.5 µM. For the same compound, the TGI [47] was 26.4 µM, the GI50 [48] was 16.1 µM and the TGI [48] was 30.4 µM. It also gave a GI50 [49] of 3.59 µM, a TGI [49] of 20.9 µM and a GI50 [50] of 9.08 µM. For the same compound, the TGI [50] was 21.4 µM, the GI50 [51] was 17.2 µM and the TGI [51] was 32.8 µM. The GI50 [52] was 16.5 µM, the TGI [52] was 34.9 µM and the GI50 [53] was 15.5 µM. It also gave a TGI [53] of 28.9 µM, a GI50 [54] of 13.4 µM and a TGI [54] of 27.4 µM. The GI50 [55] was 16.1 µM, the TGI [55] was 29.9 µM and the GI50 [56] was 15.7 µM. For the same compound, the TGI [56] was 29.8 µM, the GI50 [57] was 4.79 µM and the TGI [57] was 18.1 µM. The GI50 [58] was 15.4 µM and the TGI [58] was 29.6 µM.
